Measured values as given in patent publication US9115106B2, “Use of 5-hydroxy-2-hydroxymethyl-γ-pyrone (HMP) as a leishmanicidal agent” (UNIVERSIDADE FEDERAL DO PARA, priority 2008, dated 2015).
Where “and” joins values, the source holds several entries; their conditions need not be identical. Identical values can stand only once.

Assays:
[1] = test system: host cells infected with L. amazonensis; experiment: Superoxide production, histochemical assay with Nitro Blue Tetrazolium (NBT); format: cell-based, murine; conditions: 50 μg/mL, compared with control cells
Method: (§1) The peritoneal murine macrophage cells were cultured at 37° C. and 5% CO2 in Dulbecco's modified Eagle's medium (DMEM) supplemented with 10% heat-inactivated sterile filtered fetal bovine serum (FCS), 10 mM Hepes, pH 7.3, 100 U/mL penicillin and 100 µg/mL streptomycin (all from Gibco BRL/Life Technologies, Middlesex, UK). Cells were used after 24 hours of culture. Host cells were cultivated and infected or not with L. amazonensis, before treating or not with HMP at the same concentrations described previously.

[2] = ideal doses of consumption; no risk in doses of 0.03-0.06 mg/kg/day; cited from earlier work
[3] = estimated; cited from earlier work
[4] = test system: peritoneal murine macrophage cells; experiment: Morphological analysis of host cells by light, fluorescence and electron microscopy; format: cell-based; conditions: treated cells compared with control cells
Method: The peritoneal murine macrophage cells were cultured at 37° C. and 5% CO2 in Dulbecco's modified Eagle's medium (DMEM) supplemented with 10% heat-inactivated sterile filtered fetal bovine serum (FCS), 10 mM Hepes, pH 7.3, 100 U/mL penicillin and 100 µg/mL streptomycin (all from Gibco BRL/Life Technologies, Middlesex, UK). Cells were used after 24 hours of culture. Firstly, morphological alterations were observed by light and fluorescence microscopy, as well as transmission and scanning electron microscopy in host cells, treated or not with 10, 20 and 50 μg/mL of HMP diluted in DMEM. Viability analyses performed by through Thiazolyl Blue (MTT) e Neutral Red (NR) assays.

rats = conditions: cited from earlier work
[5] = test system: bacteria from various genera; conditions: Aerobacter, Bacillus, Escherichia, Staphylococcus and other genera; cited from earlier work
[6] = water, ethanol, or acetone; cited from earlier work
leukemia P388 = leukemia P388 in mice; cited from earlier work
[7] = test system: bacteria (bacilos, Salmonella); conditions: cited from earlier work
Leishmania promastigotes = experiment: Leishmanicidal activity on promastigotes; format: cell-based, L. amazonensis; conditions: 50 μg/mL
[8] = test system: L. amazonensis amastigotes in infected macrophages; experiment: Leishmanicidal activity on amastigotes during in vitro infection of macrophages; format: cell-based
Method: as §1, with “culture. L. amazonensis promastigotes were obtained from the Evandro Chagas Institute in NNN medium and maintained at 26° C. in RPMI1640 medium.” for “culture.”

tyrosinases 1 and 2 = conditions: Schistosoma mansoni eggs; cited from earlier work
[9] = test system: peritoneal murine macrophage cells; experiment: Cellular viability by MTT and Neutral Red assays; format: cell-based; conditions: 10, 20 and 50 μg/mL HMP in DMEM
Method: The peritoneal murine macrophage cells were cultured at 37° C. and 5% CO2 in Dulbecco's modified Eagle's medium (DMEM) supplemented with 10% heat-inactivated sterile filtered fetal bovine serum (FCS), 10 mM Hepes, pH 7.3, 100 U/mL penicillin and 100 µg/mL streptomycin (all from Gibco BRL/Life Technologies, Middlesex, UK). Cells were used after 24 hours of culture. […] Viability analyses performed by through Thiazolyl Blue (MTT) e Neutral Red (NR) assays.

thyroid = conditions: continued administration of high doses, rats; cited from earlier work
melasma = conditions: HMP added to trichloroacetic acid and glycolic acid mixture; cited from earlier work

O=c1cc(CO)occ1O [HMP, 5-hydroxy-2-hydroxymethyl-γ-pyrone]
superoxide production (NBT) [1]: greater superoxide production | toxic or genotoxic effects [2]: does not contain toxic or genotoxic effects | pKa [3]: 7.90 and 8.03 | host cell activation (morphology) [4]: increase on actin filament polymerization and spreading | teratogenic effect (rats): did not cause any teratogenic effect | antibacterial activity [5]: inhibition of bacteria from various genera | solubility [6]: freely soluble | antitumoural activity (leukemia P388): positive effects of antitumoural activity | mutagenicity [7]: evidence in the literature regarding the mutagenicity of HMP in bacteria | inhibition at 50 µg/mL (Leishmania promastigotes): 68% | minimal concentration with leishmanicidal activity ([8]; activating host cell microbicidal response): 50 µg/mL | reduction in amastigotes during in vitro infection ([8]; cells treated with 50 μg/mL): 79% | effect on intracellular amastigote (ultrastructural observations) ([8]; parasites inside the macrophages): causing morphological alterations and death | inhibition of tyrosinase activity (tyrosinases 1 and 2): inhibit the activity of tyrosinases 1 and 2 | cytotoxic effect by MTT and NR assays [9]: not due to unspecific cytotoxic effect | thyroid tumour induction (thyroid): induction of thyroid adenomas | effect on melasma treatment (melasma): improved treatment of melasma
